From patent US7198811B2, “Compositions for the preservation of fruits and vegetables” (University of Guelph, priority 2002, dated 2007)

Legend:
Vista Cherries = assay: Postharvest dips of compositions or individual components on Vista cherries; further: dipped 2.5 min; type: in vivo; conditions: dipped […], concentration as printed per treatment; stored 4° C. in air
Protocol: Samples were allowed to dry at room temperature and stored at 4° C. in air. Evaluations were conducted two weeks and four weeks after treatment. The results given are mean of twenty sample values.

Cortland apples = assay: Superficial scald and softening in Cortland apples versus duration of dip treatment; type: in vivo; conditions: 1 minute, 1500 ppm; CA storage 9 months
Protocol: The effects of antioxidant formulation of the present invention, and subgroups of its chemical components on post harvest qualities of Cortland apples were investigated.
The effect of the duration of dip treatment of Cortland apples using the antioxidant formulation (Example 1, Solution B) is presented in Table 3C. Ten ml of the formulation of was diluted to a liter. […] Twenty randomly selected apples from each of the treatments were removed and kept at room temperature for a week before evaluations were conducted.
Ten ml of the concentrate of the EAM formulation was diluted to one liter to form the final solution. […] Two bushels of apples were dipped in 40 liters of solution for each time period and subjected to controlled atmosphere storage as defined above. Apples were brought out after 9 months of storage. Twenty apples from each treatment were picked randomly from two independent sets, and left at room temperature for one week before evaluating for scald and softening.
Ten ml of the concentrate of the AOX formulation was diluted to one liter to form the final solution. […] Two bushels of apples were dipped in 40 liters of solution for each time period and subjected to controlled atmosphere storage as defined above. Apples were brought out after 9 months of storage. […]

Structure (SMILES) | Firmness (kg) 2 weeks (Vista Cherries) [kg] | Firmness (kg) 4 weeks (Vista Cherries) [kg] | Soluble Solids (%) 2 weeks (Vista Cherries) [%] | Softening % (Cortland apples) [%] | Superficial scald % (Cortland apples) [%] | Soluble Solids (%) 4 weeks (Vista Cherries) [%]
O=C1O[C@H]([C@@H](O)CO)C(O)=C1O [Ascorbic Acid] | 1.2 | 1.12 |  |  |  | 
c1ccc(CNc2ncnc3nc[nH]c23)cc1 [BA, benzyladenine] | 1.24 | 1.14 | 13.8 |  |  | 
[Ca+2].[Cl-].[Cl-] [CaCl2, calcium chloride] | 1.26 | 1.09 |  |  |  | 
c1ccc(Nc2ccccc2)cc1 [DPA, diphenylamine] |  |  |  | 25 | 35 | 
CC(C)=CCC/C(C)=C/CO [Geraniol] | 1.01 | 1.24 |  |  |  | 17
CC(=O)OC/C=C(\C)CCC=C(C)C [Geranyl Acetate] | 1.21 | 1.12 | 17 |  |  | 
CCCCCC=O [Hexanal] | 1.24 | 1.16 |  |  |  | 
Cc1c(C)c2c(c(C)c1O)CC[C@@](C)(CCC[C@H](C)CCC[C@H](C)CCCC(C)C)O2 [α-tocopherol] | 1.21 | 1.12 |  |  |  | 16.7
